Data as given in patent US20250026752A1, “POSITIVE ALLOSTERIC MODULATORS OF THE MUSCARINIC ACETYLCHOLINE RECEPTOR M4” (Vanderbilt University, priority 2021, published 2025).

Biological target: T1, human mAChR M4 (Homo sapiens, UniProt P08173)
T1 construct: expressed in transfected cells; host or cells: CHO-K1 (ATCC), stably expressing hM4 and Gqi5
T1 sequence (P08173 1-479): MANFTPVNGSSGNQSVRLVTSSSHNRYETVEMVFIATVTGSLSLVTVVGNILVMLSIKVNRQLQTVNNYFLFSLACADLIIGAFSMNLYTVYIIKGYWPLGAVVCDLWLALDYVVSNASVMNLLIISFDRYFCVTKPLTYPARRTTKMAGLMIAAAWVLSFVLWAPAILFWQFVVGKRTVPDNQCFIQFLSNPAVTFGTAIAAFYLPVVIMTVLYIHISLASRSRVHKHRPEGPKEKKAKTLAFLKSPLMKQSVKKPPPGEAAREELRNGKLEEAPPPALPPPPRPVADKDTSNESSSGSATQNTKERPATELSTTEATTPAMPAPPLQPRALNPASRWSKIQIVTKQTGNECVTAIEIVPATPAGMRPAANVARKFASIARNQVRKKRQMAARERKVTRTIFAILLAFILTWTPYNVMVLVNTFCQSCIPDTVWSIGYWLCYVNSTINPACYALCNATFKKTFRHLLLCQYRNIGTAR
Assay: mAChR M4 cell-based functional assay: calcium flux (Fluo-4, FDSS), positive allosteric modulator activity on the EC20 acetylcholine response, hM4-Gqi5 CHO-K1 cells
Parameters: Emax: dose or concentration left out as unconfirmed
Conditions: for Emax at 30 µM: CHO-K1, human M4, % ACh maximum at 30 μM; for EC50: human M4, PAM activity on EC20 acetylcholine response, calcium flux, read-out: Human M4 EC50
How it was run: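 Potentiation was taken as the concentration-dependent rise in the EC20 acetylcholine calcium response, fitted by a four-parameter logistic with EC20 as baseline. Fluo-4-loaded hM4-Gqi5 CHO-K1 cells received 11-point, threefold-diluted compound before acetylcholine at 144 s; FDSS read at 1 Hz.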

| Compound | Emax at 30 µM [%] | EC50 [µM] | Emax (CHO-K1) [%] |
| --- | --- | --- | --- |
| Cc1ccc2nc(N(C)C)nc(N3CCc4ncc(C(F)(F)F)cc4C3)c2c1 [Compound 180, N,N,6-trimethyl-4-[3-(trifluoromethyl)-7,8-dihydro-5H-1,6-naphthyridin-6-yl]quinazolin-2-amine] |  | 0.71 | 90 |
| Cc1ccc2nc(Nc3ccnn3C)nc(N3CCc4ncc(C(F)(F)F)cc4C3)c2c1 [Compound 181, 6-methyl-N-(2-methylpyrazol-3-yl)-4-[3-(trifluoromethyl)-7,8-dihydro-5H-1,6-naphthyridin-6-yl]quinazolin-2-amine] | 85 | 0.55 |  |
| Cc1nc(N2CCc3ncc(N4CCOc5ncccc54)cc3C2)c2cc(C(F)(F)F)ccc2n1 [Compound 182, 1-[6-[2-methyl-6-(trifluoromethyl)quinazolin-4-yl]-7,8-dihydro-5H-1,6-naphthyridin-3-yl]-2,3-dihydropyrido[2,3-b][1,4]oxazine] | 81 | 3.3 |  |
| Cn1nccc1Nc1cnc2c(c1)CN(c1nc(N3CCOCC3)nc3ccc(F)cc13)CC2 [Compound 185, 6-(6-fluoro-2-morpholino-quinazolin-4-yl)-N-(2-methylpyrazol-3-yl)-7,8-dihydro-5H-1,6-naphthyridin-3-amine] | 83 | 0.39 |  |
| FC(F)(F)c1cnc2c(c1)CN(c1nc(C3CC3)nc3ccc(Cl)cc13)CC2 [Compound 186, 6-chloro-2-cyclopropyl-4-[3-(trifluoromethyl)-7,8-dihydro-5H-1,6-naphthyridin-6-yl]quinazoline] | 75 | > 10 |  |
| Cc1noc(C)c1-c1cnc2c(c1)CN(c1nc(-c3c(C)noc3C)nc3ccc(Cl)cc13)CC2 [Compound 187, 4-[6-chloro-4-[3-(3,5-dimethylisoxazol-4-yl)-7,8-dihydro-5H-1,6-naphthyridin-6-yl]quinazolin-2-yl]-3,5-dimethyl-isoxazole] | 79 | 4.15 |  |
| Cc1nn(C)cc1-c1cnc2c(c1)CN(c1nc(-c3cn(C)nc3C)nc3ccc(Cl)cc13)CC2 [Compound 188, 6-chloro-2-(1,3-dimethylpyrazol-4-yl)-4-[3-(1,3-dimethylpyrazol-4-yl)-7,8-dihydro-5H-1,6-naphthyridin-6-yl]quinazoline] | 68 | 1.91 |  |
| Cc1ccc2nc(Nc3ccnn3C)nc(N3CCc4ncc(Nc5ccnn5C)cc4C3)c2c1 [Compound 189, 6-methyl-N-(2-methylpyrazol-3-yl)-4-[3-[(2-methylpyrazol-3-yl)amino]-7,8-dihydro-5H-1,6-naphthyridin-6-yl]quinazolin-2-amine] | 127 | 0.18 |  |
| Cc1nn(C)cc1-c1cnc2c(c1)CN(c1nc(C3CC3)nc3ccc(Cl)cc13)CC2 [Compound 191, 6-chloro-2-cyclopropyl-4-[3-(1,3-dimethylpyrazol-4-yl)-7,8-dihydro-5H-1,6-naphthyridin-6-yl]quinazoline] | 80 | 1.07 |  |
| Clc1ccc2nc(C3CC3)nc(N3CCc4ncc(N5CCCn6nccc65)cc4C3)c2c1 [Compound 192, 6-chloro-2-cyclopropyl-4-[3-(6,7-dihydro-5H-pyrazolo[1,5-a]pyrimidin-4-yl)-7,8-dihydro-5H-1,6-naphthyridin-6-yl]quinazoline] | 100 | 0.41 |  |
| Cc1nn(C)cc1-c1cnc2c(c1)CN(c1nc(C3CC3)nc3ccc(F)cc13)CC2 [Compound 193, 2-cyclopropyl-4-[3-(1,3-dimethylpyrazol-4-yl)-7,8-dihydro-5H-1,6-naphthyridin-6-yl]-6-fluoro-quinazoline] | 85 | 0.95 |  |
| Fc1ccc2nc(C3CC3)nc(N3CCc4ncc(N5CCCn6nccc65)cc4C3)c2c1 [Compound 194, 2-cyclopropyl-4-[3-(6,7-dihydro-5H-pyrazolo[1,5-a]pyrimidin-4-yl)-7,8-dihydro-5H-1,6-naphthyridin-6-yl]-6-fluoro-quinazoline] | 10 | 0.23 |  |
| OC1(C2CC2)CN(c2nc(N3CCc4ncc(C(F)(F)F)cc4C3)c3cc(F)ccc3n2)C1 [Compound 201, 3-cyclopropyl-1-[6-fluoro-4-[3-(trifluoromethyl)-7,8-dihydro-5H-1,6-naphthyridin-6-yl]quinazolin-2-yl]azetidin-3-ol] | 97 | 0.29 |  |
| [2H]c1nc(N2CCc3ncc(N4CCOc5ncccc54)cc3C2)c2cc(C)ccc2n1 [Compound 204, 1-[6-(2-deuterio-6-methyl-quinazolin-4-yl)-7,8-dihydro-5H-1,6-naphthyridin-3-yl]-2,3-dihydropyrido[2,3-b][1,4]oxazine] | 93 | 0.08 |  |
| Cc1ccc2nc(N3CCOCC3)nc(N3CCc4ncc(C(F)(F)F)cc4C3)c2c1 [Compound 205, 4-[6-methyl-4-[3-(trifluoromethyl)-7,8-dihydro-5H-1,6-naphthyridin-6-yl]quinazolin-2-yl]morpholine] | 63 | 0.67 |  |
| Cc1ccc2nc(N3CCCC3)nc(N3CCc4ncc(C(F)(F)F)cc4C3)c2c1 [Compound 206, 6-methyl-2-pyrrolidin-1-yl-4-[3-(trifluoromethyl)-7,8-dihydro-5H-1,6-naphthyridin-6-yl]quinazoline] | 74 | 0.72 |  |

Continued, in another order:

| Emax at 30 µM [%] | EC50 [µM] | Compound | Emax (CHO-K1) [%] |
| --- | --- | --- | --- |
| 98 | 0.34 | COc1nc(N2CCc3ncc(C(F)(F)F)cc3C2)c2cc(C)ccc2n1 [Compound 179, 2-methoxy-6-methyl-4-[3-(trifluoromethyl)-7,8-dihydro-5H-1,6-naphthyridin-6-yl]quinazoline] |  |
| 71 | 0.26 | Fc1ccc2nc(N3CCOCC3)nc(N3CCc4ncc(C(F)(F)F)cc4C3)c2c1 [Compound 183, 4-[6-fluoro-4-[3-(trifluoromethyl)-7,8-dihydro-5H-1,6-naphthyridin-6-yl]quinazolin-2-yl]morpholine] |  |
| 93 | 1.38 | Fc1ccc2nc(NC3CC(F)(F)C3)nc(N3CCc4ncc(C(F)(F)F)cc4C3)c2c1 [Compound 184, N-(3,3-difluorocyclobutyl)-6-fluoro-4-[3-(trifluoromethyl)-7,8-dihydro-5H-1,6-naphthyridin-6-yl]quinazolin-2-amine] |  |
| 91 | 0.06 | [2H]c1nc(N2CCc3ncc(C(F)(F)F)cc3C2)c2cc(F)ccc2n1 [Compound 190, 2-deuterio-6-fluoro-4-[3-(trifluoromethyl)-7,8-dihydro-5H-1,6-naphthyridin-6-yl]quinazoline] |  |
| 95 | 0.73 | Fc1ccc2nc(N3CCCC3)nc(N3CCc4ncc(C(F)(F)F)cc4C3)c2c1 [Compound 195, 6-fluoro-2-pyrrolidin-1-yl-4-[3-(trifluoromethyl)-7,8-dihydro-5H-1,6-naphthyridin-6-yl]quinazoline] |  |
| 98 | 0.41 | Fc1ccc2nc(NC3CC3)nc(N3CCc4ncc(C(F)(F)F)cc4C3)c2c1 [Compound 196, N-cyclopropyl-6-fluoro-4-[3-(trifluoromethyl)-7,8-dihydro-5H-1,6-naphthyridin-6-yl]quinazolin-2-amine] |  |
| 98 | 0.34 | Cn1nccc1Nc1nc(N2CCc3ncc(C(F)(F)F)cc3C2)c2cc(F)ccc2n1 [Compound 197, 6-fluoro-N-(2-methylpyrazol-3-yl)-4-[3-(trifluoromethyl)-7,8-dihydro-5H-1,6-naphthyridin-6-yl]quinazolin-2-amine] |  |
| 94 | 0.67 | Fc1ccc2nc(N3CCOc4ncccc43)nc(N3CCc4ncc(C(F)(F)F)cc4C3)c2c1 [Compound 198, 1-[6-fluoro-4-[3-(trifluoromethyl)-7,8-dihydro-5H-1,6-naphthyridin-6-yl]quinazolin-2-yl]-2,3-dihydropyrido[2,3-b][1,4]oxazine] |  |
| 96 | 3.37 | Fc1ccc2nc(Oc3ccccc3F)nc(N3CCc4ncc(C(F)(F)F)cc4C3)c2c1 [Compound 199, 6-fluoro-2-(2-fluorophenoxy)-4-[3-(trifluoromethyl)-7,8-dihydro-5H-1,6-naphthyridin-6-yl]quinazoline] |  |
| 63 | > 10 | Fc1ccc2nc(Nc3ccccc3F)nc(N3CCc4ncc(C(F)(F)F)cc4C3)c2c1 [Compound 200, 6-fluoro-N-(2-fluorophenyl)-4-[3-(trifluoromethyl)-7,8-dihydro-5H-1,6-naphthyriidn-6-yl]quinazolin-2-amine] |  |
| 92 | 0.3 | Fc1ccc2nc(NC3CCOC3)nc(N3CCc4ncc(C(F)(F)F)cc4C3)c2c1 (centres unmarked) [Compound 202, 6-fluoro-N-tetrahydrofuran-3-yl-4-[3-(trifluoromethyl)-7,8-dihydro-5H-1,6-naphthyridin-6-yl]quinazolin-2-amine] |  |
| 90 | 0.41 | CC(C)(O)CNc1nc(N2CCc3ncc(C(F)(F)F)cc3C2)c2cc(F)ccc2n1 [Compound 203, 1-[[6-fluoro-4-[3-(trifluoromethyl)-7,8-dihydro-5H-1,6-naphthyridin-6-yl]quinazolin-2-yl]amino]-2-methyl-propan-2-ol] |  |
